Reference: paper PMC4521150, “Discovery of Novel Inhibitors and Fluorescent Probe Targeting NAMPT” (Scientific Reports, 2015)

Biological target: T1, recombinant human NAMPT (Homo sapiens, UniProt P43490)
T1 construct: His tag (N); made in house; host or cells: E. coli BL21-CodonPlus (DE3)-RIL, pET21a+ vector
Assay: HTS / fixed-concentration NAMPT activity screen (fluorometric)
Format: biochemical
Details: 20 μM compound; analogues of the 46 non-fluorescent inhibitors
Description: Using our previously established high throughput screening (HTS) platform and recombinant human NAMPT[14][15], we performed a HTS on a chemical library containing 30000 small-molecules (Chemdiv, CA, USA). Our HTS targeting NAMPT was developed based on a fluorometric method for NAMPT activity assay by measuring the fluorescence of nicotinamide mononucleotide (NMN) derivative resulting from the NAMPT enzymatic product NMN through simple chemical reactions (Fig. 1A). The 30000 compounds were dissolved with dimethyl sulfoxide (DMSO); most of compounds were soluble at 10 mM stock solution (94.1%), some compounds insoluble at 10 mM were soluble at 2.5 mM stock solution (4.4%), and the remaining compounds insoluble at 2.5 mM (1.5%) were diluted further during HTS experiments (Fig. 1B). To guarantee the quality of screening, S/N ratio, CV and Z’ factors were monitored throughout the screenings, and all three indices met the requirements of HTS (Fig. 1C–E). After a primary screen and a secondary screen of all compounds at 20 μM, 242 compounds were selected as the hits of NAMPT inhibitors (NAMPT activity < 40%), and the hit rate was ~0.8% (Fig. 1F). […] All these 55 compounds were not reported as NAMPT inhibitors previously. Among the 55 compounds, we noted 46 compounds were non-fluorescent and 9 compounds were fluorescent (Fig. 1F). These fluorescent and non-fluorescent compounds were further studied separately.
HTS was performed using our previously reported method. 0.5 μl stock of each compound (1 mM DMSO stock) was transferred to a 96-well PCR plate for screening. In the primary screening, 5 ng NAMPT in 20 μl reaction buffer [0.4 mM phosphoribosylpyrophosphate (PRPP, Sigma), 2 mM ATP, 0.02% BSA, 2 mM DTT, 12 mM MgCl2 and 50 mM Tris-HCl (pH = 7.5)] was added into each well, the plate was incubated at 37 °C for 5 min, then 4.5 μl substrate of NAM was added to initiate the enzyme reaction, resulting in a final concentration of 2% DMSO, 2 μg/ml NAMPT, 0.2 μM NAM and 20 μM compound. After reacting at 37 °C for 15 min, the enzyme reaction was terminated by heating at 95 °C for 1 min and cooling in an ice bath. The product of NMN was detected through the following approach: after adding 10 μl 20% acetophenone in DMSO and 10 μl 2 M KOH into each well, the mixture was vortex-mixed and kept in ice bath for 2 min. Then 45 μl 88% formic acid was added and the mixture was incubated at 37 °C for 10 min. Finally, 85 μl mixtures in each well were transferred into a flat-bottom 96-well black plate (Greiner), and the fluorescence (F) was measured using a Tecan Infinity M200 plate reader (Tecan Group Ltd.) by setting the excitation and emission wavelength to 382 nm and 445 nm respectively. The last row of each 96-well plate includes six wells of background controls and six wells of reference controls. The relative enzyme activity (Activity%) regulated by specific compound was calculated according to equation (1):
F0 was the averaged fluorescence of six background controls, representing zero activity from a simulated enzyme reaction with only NAMPT but no NAM and compound; F100% was the averaged fluorescence of six reference controls, representing 100% activity from intact enzyme reaction without compound perturbation.
Compounds with Activity% less than 40% were considered as inhibitors and subjected to a secondary screen inhibition validation, in which another background control (FC0), a simulated enzyme reaction with NAMPT and compound but no NAM, was introduced to eliminate the direct and/or indirect influence from compound. At this stage, the Activity% was calculated according to equation (2): […]

T1 sequence (P43490 whole entry): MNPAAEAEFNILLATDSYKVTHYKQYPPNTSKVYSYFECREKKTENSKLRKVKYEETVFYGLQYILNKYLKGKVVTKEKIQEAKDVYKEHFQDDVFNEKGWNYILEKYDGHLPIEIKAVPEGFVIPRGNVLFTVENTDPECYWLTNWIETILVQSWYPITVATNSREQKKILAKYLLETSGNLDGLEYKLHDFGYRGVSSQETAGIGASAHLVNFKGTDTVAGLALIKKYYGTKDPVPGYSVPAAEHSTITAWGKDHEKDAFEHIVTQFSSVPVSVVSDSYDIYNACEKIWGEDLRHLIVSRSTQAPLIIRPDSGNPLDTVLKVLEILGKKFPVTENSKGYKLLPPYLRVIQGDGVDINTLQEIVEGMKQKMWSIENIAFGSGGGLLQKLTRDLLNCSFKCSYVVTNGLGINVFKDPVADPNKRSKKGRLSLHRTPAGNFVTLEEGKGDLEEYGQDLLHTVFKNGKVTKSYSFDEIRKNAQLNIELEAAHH

SMILES | NAMPT inhibition activity at 20 μM
COc1ccc(OC)c(CNC(=O)CCCn2c(=O)c3cccn3c3cccnc32)c1 [C799-0387] | No (showed no NAMPT inhibition activity at 20 μM (NAMPT activity ≥40%))
Cc1ccc(OCc2ccc(-c3nc(C#N)c(NCc4cccnc4)o3)o2)cc1 [D301-0100] | No (showed no NAMPT inhibition activity at 20 μM (NAMPT activity ≥40%))
Cc1cccc(OCc2ccc(-c3nc(C#N)c(NCc4cccnc4)o3)o2)c1 [D301-0252] | No (showed no NAMPT inhibition activity at 20 μM (NAMPT activity ≥40%))
Cc1ccccc1OCc1ccc(-c2nc(C#N)c(NCc3cccnc3)o2)o1 [D301-0303] | No (showed no NAMPT inhibition activity at 20 μM (NAMPT activity ≥40%))
Cc1c(Cl)cccc1NC(=O)Cn1nc(C)c2sc3ccccc3c2c1=O [E019-0120] | No (showed no NAMPT inhibition activity at 20 μM (NAMPT activity ≥40%))
Cc1cc(C)c(NC(=O)C(C)n2nc(C)c3sc4ccccc4c3c2=O)c(C)c1 (stereo not shown) [E019-0435] | No (showed no NAMPT inhibition activity at 20 μM (NAMPT activity ≥40%))
Cc1nn(CCCC(=O)Nc2ccccc2C(F)(F)F)c(=O)c2c1sc1ccccc12 [E019-0923] | No (showed no NAMPT inhibition activity at 20 μM (NAMPT activity ≥40%))
COc1cc(OC)c(NC(=O)CCCn2nc(C)c3sc4ccccc4c3c2=O)cc1Cl [E019-0951] | No (showed no NAMPT inhibition activity at 20 μM (NAMPT activity ≥40%))
Cc1ccccc1CNC(=O)CCCn1nc(C)c2sc3ccccc3c2c1=O [E019-1139] | No (showed no NAMPT inhibition activity at 20 μM (NAMPT activity ≥40%))
CC(=O)c1cccc(NC(=O)Cc2noc3ccccc23)c1 [E207-0513] | No (showed no NAMPT inhibition activity at 20 μM (NAMPT activity ≥40%))
COc1ccc(CNC(=O)Cn2c(=O)c3cccn3c3cccnc32)cc1 [E524-0113] | No (showed no NAMPT inhibition activity at 20 μM (NAMPT activity ≥40%))
Cc1ccccc1CNC(=O)Cn1c(=O)c2cccn2c2cccnc21 [E524-0298] | No (showed no NAMPT inhibition activity at 20 μM (NAMPT activity ≥40%))
O=C(Cn1c(=O)c2cccn2c2cccnc21)NCc1ccccc1F [E524-0299] | No (showed no NAMPT inhibition activity at 20 μM (NAMPT activity ≥40%))
O=C(Cn1c(=O)c2cccn2c2cccnc21)NCc1cccc(F)c1 [E524-0302] | No (showed no NAMPT inhibition activity at 20 μM (NAMPT activity ≥40%))
Cc1ccc(Cl)cc1NC(=O)CCCn1c(=O)c2cccn2c2cccnc21 [E524-1295] | No (showed no NAMPT inhibition activity at 20 μM (NAMPT activity ≥40%))
Cc1ccc(NC(=O)CCCn2c(=O)c3cccn3c3cccnc32)c(Cl)c1 [E524-1338] | No (showed no NAMPT inhibition activity at 20 μM (NAMPT activity ≥40%))
COc1ccc(Cl)cc1NC(=O)CCCn1c(=O)c2cccn2c2cccnc21 [E524-1372] | No (showed no NAMPT inhibition activity at 20 μM (NAMPT activity ≥40%))
CCOc1ccc(CCNC(=O)CCCn2c(=O)c3cccn3c3cccnc32)cc1 [E524-1469] | No (showed no NAMPT inhibition activity at 20 μM (NAMPT activity ≥40%))
COc1ccc(OC)c(CCNC(=O)CCCn2c(=O)c3cccn3c3cccnc32)c1 [E524-1470] | No (showed no NAMPT inhibition activity at 20 μM (NAMPT activity ≥40%))
COc1cccc(CNC(=O)CCCn2c(=O)c3cccn3c3cccnc32)c1OC [E524-1489] | No (showed no NAMPT inhibition activity at 20 μM (NAMPT activity ≥40%))

SMILES | NAMPT inhibition activity at 20 μM
COc1ccc(Br)cc1CNC(=O)CCCn1c(=O)c2cccn2c2cccnc21 [E524-1499] | No (showed no NAMPT inhibition activity at 20 μM (NAMPT activity ≥40%))
CCC(C)NC(=O)c1ccc(Cn2c(=O)c3cccn3c3cccnc32)cc1 (stereo not shown) [E524-1568] | No (showed no NAMPT inhibition activity at 20 μM (NAMPT activity ≥40%))
O=C(NCc1ccccc1Cl)c1ccc(Cn2c(=O)c3cccn3c3cccnc32)cc1 [E524-1573] | Yes
COc1ccc(CCNC(=O)c2ccc(Cn3c(=O)c4cccn4c4cccnc43)cc2)cc1OC [E524-1586] | No (showed no NAMPT inhibition activity at 20 μM (NAMPT activity ≥40%))
CN(C)CCNC(=O)c1ccc(Cn2c(=O)c3cccn3c3cccnc32)cc1 [E524-1589] | No (showed no NAMPT inhibition activity at 20 μM (NAMPT activity ≥40%))
CC(C)NC(=O)c1ccc(Cn2c(=O)c3cccn3c3cccnc32)cc1 [E524-1612] | No (showed no NAMPT inhibition activity at 20 μM (NAMPT activity ≥40%))
CCCNC(=O)c1ccc(Cn2c(=O)c3cccn3c3cccnc32)cc1 [E524-1613] | No (showed no NAMPT inhibition activity at 20 μM (NAMPT activity ≥40%))
CCOCCCNC(=O)c1ccc(Cn2c(=O)c3cccn3c3cccnc32)cc1 [E524-1662] | No (showed no NAMPT inhibition activity at 20 μM (NAMPT activity ≥40%))
CC(C)OCCCNC(=O)c1ccc(Cn2c(=O)c3cccn3c3cccnc32)cc1 [E524-1673] | No (showed no NAMPT inhibition activity at 20 μM (NAMPT activity ≥40%))
COc1ccc(CNC(=O)c2ccc(Cn3c(=O)c4cccn4c4cccnc43)cc2)c(OC)c1 [E524-1754] | No (showed no NAMPT inhibition activity at 20 μM (NAMPT activity ≥40%))
CN(C)c1ccc(CNC(=O)c2ccc(Cn3c(=O)c4cccn4c4cccnc43)cc2)cc1 [E524-1758] | No (showed no NAMPT inhibition activity at 20 μM (NAMPT activity ≥40%))
CCOc1ccc(CCNC(=O)c2ccc(Cn3c(=O)c4cccn4c4cccnc43)cc2)cc1 [E524-1767] | No (showed no NAMPT inhibition activity at 20 μM (NAMPT activity ≥40%))
COc1ccc(Cl)cc1NC(=O)NCc1noc2ccccc12 [E567-0019] | No (showed no NAMPT inhibition activity at 20 μM (NAMPT activity ≥40%))
O=C(NCc1ccc(Cl)cc1)NCc1noc2ccccc12 [E567-0228] | No (showed no NAMPT inhibition activity at 20 μM (NAMPT activity ≥40%))
CCOc1ccccc1NC(=O)NCc1noc2ccc(C)cc12 [E569-0079] | No (showed no NAMPT inhibition activity at 20 μM (NAMPT activity ≥40%))
COc1ccc(OC)c(CNC(=O)NCc2noc3ccc(C)cc23)c1 [E569-0193] | No (showed no NAMPT inhibition activity at 20 μM (NAMPT activity ≥40%))
Cc1ccc2onc(CNC(=O)Nc3ccccc3C#N)c2c1 [E569-0217] | No (showed no NAMPT inhibition activity at 20 μM (NAMPT activity ≥40%))
O=C(COc1ccc(F)cc1)Nc1ccccc1C(=O)OCc1cc(=O)n2ccsc2n1 [G357-1695] | No (showed no NAMPT inhibition activity at 20 μM (NAMPT activity ≥40%))
Cc1cn2c(=O)cc(COC(=O)c3cccc(NC(=O)C(C)Oc4ccccc4)c3)nc2s1 (stereo not shown) [G357-2118] | No (showed no NAMPT inhibition activity at 20 μM (NAMPT activity ≥40%))
Cc1ccc2c(=O)cc(CSc3nnc(-c4ccccc4)n3C)[nH]c2c1C [G751-0753] | No (showed no NAMPT inhibition activity at 20 μM (NAMPT activity ≥40%))
